Measurements taken from patent US6077843A, “Aqueous suspensions of 9-hydroxyrisperidone fatty acid esters” (Janssen Pharmaceutica, N.V., priority 1996, dated 2000).
One block for each compound: values may come before it.

Columns and labels:
[1] = cited from earlier work
[2] = pamoate salt; cited from earlier work
[3] = cited from earlier work; remark: listed apart in the source
[4] = compared with 9-hydroxy-risperidone; cited from earlier work
[5] = compared with risperidone; cited from earlier work
[6] = Systemic and local tolerance of depot formulations (described in words); type: in vivo
[7] = Particle size distribution of the milled and sieved ester; type: physicochemical
From the text: # The ester was milled and sieved using appropriate nominal standard test sieves, yielding active ingredient having a particle size distribution as follows: […]

[8] = Pharmacokinetic investigations on ester depot formulations (described in words); type: in vivo; conditions: versus other C10-20 alkanoic acid esters

Compound: Cc1nc2n(c(=O)c1CCN1CCC(c3noc4cc(F)ccc34)CC1)CCCC2 [risperidone pamoate]
- initial plasma levels ([1]; suspension, WO-94/25460): relatively high initial plasma levels
- mean duration of action ([1]; suspension, WO-94/25460): inadequate mean duration of action
- release of the active ingredient ([1]; suspension, WO-94/25460): too rapid
- water solubility [2]: poorly water-soluble

Compound: Cc1nc2n(c(=O)c1CCN1CCC(c3noc4cc(F)ccc34)CC1)CCCC2 [Risperidone, 3-[2-[4-(6-fluoro-1,2-benzisoxazol-3-yl)-1-piperidinyl]ethyl]-6,7,8,9-tetrahydro-2-methyl-4H-pyridol[1,2-a]pyrimidin-4-one]
- therapeutic index ([3]; in vivo): relatively narrow therapeutic index
- undesirable side effects on overdosage ([3]; overdosage): most notably extra pyramidal syndrome (EPS) and to a lesser extent hypotension
- distribution to and elimination from the brain tissues [4]: more rapidly than its metabolite 9-hydroxy-risperidone
- metabolism ([1]; in vivo): metabolized to 9-hydroxyrisperidone

Compound: Cc1nc2n(c(=O)c1CCN1CCC(c3noc4cc(F)ccc34)CC1)CCCC2O (stereo not shown) [9-hydroxyrisperidone]
- elimination half-life ([1]; compared with risperidone): longer elimination half-life
- pharmacological profile and potency [5]: comparable with that of the parent drug risperidone

- particle size, 10% of the particles (by volume) ([7]; 10% by volume): ≥ 15 μm
- particle size, 50% of the particles (by volume) ([7]; 50% by volume): ≥ 5 μm
- particle size, 90% of the particles (by volume) ([7]; 90% by volume): ≥ 0.5 μm
- pharmacokinetic point of view [8]: superior ester
Compound: CCCCCCCCCCCCCCCC(=O)OC1CCCn2c1nc(C)c(CCN1CCC(c3noc4cc(F)ccc34)CC1)c2=O (stereo not shown) [9-hydroxyrisperidone palmitate ester]
- difference between small or large prodrug particles ([6]; suspensions of the palmitate ester in sesame oil): No significant difference between small or large prodrug particles
- tolerance point of view ([6]; versus other C10-20 alkanoic acid esters): superior ester
